Measurements from patent publication US20230357179A1, “RAF KINASE INHIBITORS AND METHODS OF USE THEREOF” (Deciphera Pharmaceuticals, LLC, priority 2021, published 2023).

Tested on: H2405 cells
Assay: H2405 cell proliferation assay (2), resazurin, 384-well
Assay type: cell-based
Conditions: Homo sapiens, NCI-H2405, inhibition of cell proliferation, 67-72 h
Protocol: H2405 Cell Proliferation Assay (2)
H2405 cells (catalog #CRL-5994) are obtained from the American Type Culture Collect (ATTC, Manassas, VA). Briefly, cells were grown in RPMI 1640 supplemented with 5% characterized fetal bovine serum (Invitrogen, Carlsbad, CA) and 1% Penicillin/Streptomycin/L-Glutamine at 37° C., 5% CO2, and 95% humidity. Cells are expanded until reaching 70-95% confluency at which point they are sub-cultured or harvested for assay use. A serial dilution of test compound is dispensed into a 384-well black clear bottom plate in triplicate. Seven hundred fifty cells are added per well in 50 μL complete growth medium in the 384-well plate. Plates are incubated for 67-72 h at 37° C., 5% CO2, and 95% humidity. At the end of the incubation, 10 μL of a 440 μM solution of resazurin (Sigma, St. Louis, MO) in PBS is added to each well of the plate and plates are incubated for an additional 5-6 h at 37° C., 5% CO2, and 95% humidity. Plates are read on a Synergy2 or equivalent reader (Biotek, Winooski VT) using an excitation of 540 nm and an emission of 600 nm. Data is analyzed using Prism software (GraphPad, San Diego, CA) to calculate IC50 values

Row | Compound | IC50
1 | Cc1cc(F)c(NC(=O)N2CC[C@H](C(F)(F)F)C2)cc1-c1cncc(-c2cc(NC(=O)C3CC3)ncn2)c1 [Example 216] | ≤ 100 nM
2 | Cc1ccc(NC(=O)N2CC[C@H](C(F)(F)F)C2)cc1-c1cncc(-c2cc(NC(=O)C3CC3)ncn2)c1 [Example 195] | ≤ 100 nM
